Source: patent US12146183B2, “Compound and a method for identifying a protein using said compound” (CITY UNIVERSITY OF HONG KONG, priority 2020, dated 2024)
Values belong to the molecule of their own block, whether it stands above or below them. Where a SMILES comes first, the peptide text is derived from it. The star is where a group is joined. ξ: configuration not given here. Lipoyl(6ξ) = O=C(CCCCC1CCSS1)*

Columns and labels:
[1] = molecular target: T1, Sirt2 (Homo sapiens, UniProt Q8IXJ6); assay: HPLC delipoylation assay of lipoylated peptides with Sirt2; type: biochemical; details: Sirt2 + NAD+, 37° C., monitored at 280 nm after 40 min
T1 construct: made in house
T1 sequence (Q8IXJ6 1-389): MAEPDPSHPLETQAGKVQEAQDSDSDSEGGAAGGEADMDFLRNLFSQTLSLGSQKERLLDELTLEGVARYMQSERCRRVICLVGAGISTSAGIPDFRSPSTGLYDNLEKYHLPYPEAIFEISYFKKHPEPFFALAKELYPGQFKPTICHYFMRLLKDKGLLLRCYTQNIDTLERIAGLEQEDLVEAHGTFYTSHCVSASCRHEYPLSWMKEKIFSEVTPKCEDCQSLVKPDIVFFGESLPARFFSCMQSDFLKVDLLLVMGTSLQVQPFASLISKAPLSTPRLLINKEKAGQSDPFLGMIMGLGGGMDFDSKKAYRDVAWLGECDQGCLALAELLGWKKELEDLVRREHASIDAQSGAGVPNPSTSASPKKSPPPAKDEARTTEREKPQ
Method: A total of 11 lipoylated peptides (KAlip-1 to KAlip-11) were synthesised. The peptide sequences were selected from proteins that have been reported as being lipoylated (PDH, KDH, BCKDH, and GCV) and non-lipoylated proteins (e.g., histone). The peptides were synthesized with a standard Fmoc solid phase synthesis approach and characterized by LC-MS. The delipoylation activity was then determined by an HPLC assay. Compared with non-putative peptides, putative lipoylated peptides appeared to be more efficiently hydrolyzed by Sirt2. For example, the delipoylated product of KAlip-1 (derived from histone) after 40 min was determined to be 59%, which is less than that of putative lipoylated substrates such as KAlip-5 and KAlip-6 (derived from PDH).
The lipoylated peptides KAlip-1 to -11 were incubated with sirtuin and cofactor NAD+ at 37° C. in 20 mM HEPES buffer (pH 8.0) containing 150 mM NaCl, 1 mM MgCl2, and 2.7 mM KCl. The reaction volume was set to 50 μL. At each specific reaction time point, the reaction mixtures were quenched by adding 250 μL of methanol. The reactions were vortexed and centrifuged. Supernatant was collected and then analysed by reverse phase HPLC. The new peak generated was collected for ESI-MS or MALDI-TOF-MS analysis directly.

[2] = molecular target: T1, Sirt2; assay: In-gel fluorescence photo-crosslinking labelling of recombinant Sirt2; type: binding; details: competition with probe KPlip
Method: The labelling efficiency of KPlip with recombinant Sirt2 was investigated. The Sirt2 enzyme was first incubated with either KPlip or a negative control probe, KPlip-C(lacking lipoylation), followed by 15 min of UV irradiation. Following click chemistry with rhodamine azide (Rh—N3), the reaction mixtures were resolved by SDS-PAGE and analysed by in-gel fluorescence scanning.
A further selectivity study was performed. […] To examine whether lipoic acid of KPlip forms a disulfide bond with cysteine residues in Sirt2, excessive reducing reagent TCEP was added to the solution containing Sirt2 and KPlip prior to UV irradiation.
20 μM azide reagent was added to the protein samples labelled by KPlip and KPlip-C. Tris(2-carboxyethyl)phosphine (0.4 mM), tris(3-hydroxypropyltriazolylmethyl)amine (40 μM), and CuSO 4 (0.4 mM) were then added. The reaction was kept at room temperature for 2 h.
After click chemistry reaction with rhodamine-azide, chilled acetone was added to the reaction mixtures. The reaction was then placed in a −20° C. freezer for 1 h to precipitate the proteins. The pellets were washed with cold methanol and air-dried. Finally, they were redissolved in 1×SDS loading buffer by heating at 95° C. for 10 min and then resolved by SDS-PAGE. The labelled proteins were visualized using a FLA-9000 Fujifilm scanner (Ex=532 nm).

[3] = substrate: CC[C@H](C)[C@H](NC(=O)[C@@H](NC(=O)[C@H](C)NC(=O)[C@H](CCCCNC(=O)CCCCC1CCSS1)NC(=O)[C@H](CC(=O)O)NC(=O)[C@@H](NC(=O)[C@H](CCC(=O)O)NC(=O)[C@@H](NC(=O)[C@@H](N)CCC(=O)O)[C@@H](C)CC)[C@@H](C)O)[C@@H](C)O)C(=O)NCC(=O)N[C@@H](Cc1c[nH]c2ccccc12)C(=O)N[C@@H](Cc1c[nH]c2ccccc12)C(=O)O; assay: Steady-state kinetic study of lipoylated peptides with Sirt2 (HPLC); type: biochemical; details: other: Sirt2, 400 μM NAD+, HEPES pH 8.0, 37° C.
Method: (§1) The delipoylation activity of HDAC8 was further examined using KAlip-5 and KAlip-1. […] A more detailed assessment of the enzymatic delipoylation reaction was performed. Time-dependent experiments and steady-state kinetics studies were conducted of KAlip-1, 5, 8, and 10 with Sirt2 (Table 1).
(§2) To determine the values of kcat, and Km, purified Sirt2 with 400 μM NAD+ was incubated with different concentrations of lipoylated peptide (0-120 μM) in 20 mM HEPES buffer (pH 8.0) containing 150 mM NaCl, 1 mM MgCl2, and 2.7 mM KCl at 37° C. for 10 min (KAlip-1 and KAlip-10) or 5 min (KAlip-5 and KAlip-8). The reactions were quenched by adding 250 μL of methanol and then applied for HPLC analysis with a linear gradient of 5% to 85% B (acetonitrile) for 30 min. The generated delipoylated product was quantified based on the peak area monitored at 280 nm. The kcat, and Km, values were calculated by curve-fitting Vinitiai/[E] versus [S]. The experiments were conducted in duplicate.

[4] = substrate: CSCC[C@H](NC(=O)[C@H](C)NC(=O)[C@H](CCC(=O)O)NC(=O)[C@@H](N)C(C)C)C(=O)N[C@@H](CCCCNC(=O)CCCCC1CCSS1)C(=O)N[C@@H](CC(C)C)C(=O)N[C@@H](CCSC)C(=O)N[C@@H](CC(N)=O)C(=O)N[C@@H](CCC(=O)O)C(=O)N[C@@H](Cc1c[nH]c2ccccc12)C(=O)N[C@@H](Cc1c[nH]c2ccccc12)C(=O)O; assay: as above; type: biochemical; details: other: Sirt2, 400 μM NAD+, HEPES pH 8.0, 37° C.
Method: as §1, §2

[5] = substrate: C[C@H](NC(=O)[C@@H](NC(=O)[C@H](CCC(N)=O)NC(=O)[C@@H](N)CCCCN)[C@@H](C)O)C(=O)N[C@@H](CCCNC(=N)N)C(=O)N[C@@H](CCCCNC(=O)CCCCC1CCSS1)C(=O)N[C@@H](CO)C(=O)N[C@H](C(=O)NCC(=O)NCC(=O)N[C@@H](Cc1c[nH]c2ccccc12)C(=O)N[C@@H](Cc1c[nH]c2ccccc12)C(=O)O)[C@@H](C)O; assay: as above; type: biochemical; details: other: Sirt2, 400 μM NAD+, HEPES pH 8.0, 37° C.
Method: as §1, §2

[6] = substrate: CC(C)[C@H](N)C(=O)N[C@@H](CCC(N)=O)C(=O)N[C@@H](CO)C(=O)N[C@@H](CC(=O)O)C(=O)N[C@@H](CCCCNC(=O)CCCCC1CCSS1)C(=O)N[C@@H](C)C(=O)N[C@@H](CO)C(=O)N[C@H](C(=O)N[C@H](C(=O)N[C@@H](Cc1c[nH]c2ccccc12)C(=O)N[C@@H](Cc1c[nH]c2ccccc12)C(=O)O)[C@@H](C)O)C(C)C; assay: as above; type: biochemical; details: other: Sirt2, 400 μM NAD+, HEPES pH 8.0, 37° C.
Method: as §1, §2

Delipoylation product (HPLC yield of delipoylated product) [1]: 59%
Molecule: C[C@H](NC(=O)[C@@H](NC(=O)[C@H](CCC(N)=O)NC(=O)[C@@H](N)CCCCN)[C@@H](C)O)C(=O)N[C@@H](CCCNC(=N)N)C(=O)N[C@@H](CCCCNC(=O)CCCCC1CCSS1)C(=O)N[C@@H](CO)C(=O)N[C@H](C(=O)NCC(=O)NCC(=O)N[C@@H](Cc1c[nH]c2ccccc12)C(=O)N[C@@H](Cc1c[nH]c2ccccc12)C(=O)O)[C@@H](C)O (stereo partly drawn) [KAlip-1, KQTARK(lip)STGGWW] (H-KQTARK(Lipoyl(6ξ))STGGWW-OH)

Delipoylation product (HPLC yield of delipoylated product) [1]: 100%
Molecule: CC[C@H](C)[C@H](NC(=O)[C@@H](NC(=O)[C@H](C)NC(=O)[C@H](CCCCNC(=O)CCCCC1CCSS1)NC(=O)[C@H](CC(=O)O)NC(=O)[C@@H](NC(=O)[C@H](CCC(=O)O)NC(=O)[C@@H](NC(=O)[C@@H](N)CCC(=O)O)[C@@H](C)CC)[C@@H](C)O)[C@@H](C)O)C(=O)NCC(=O)N[C@@H](Cc1c[nH]c2ccccc12)C(=O)N[C@@H](Cc1c[nH]c2ccccc12)C(=O)O (stereo partly drawn) [KAlip-5, EIETDK(lip)ATIGWW] (H-EIETDK(Lipoyl(6ξ))ATIGWW-OH)

Delipoylation product (HPLC yield of delipoylated product) [1]: 100%
Molecule: CC(C)[C@H](N)C(=O)N[C@@H](CCC(N)=O)C(=O)N[C@@H](CO)C(=O)N[C@@H](CC(=O)O)C(=O)N[C@@H](CCCCNC(=O)CCCCC1CCSS1)C(=O)N[C@@H](C)C(=O)N[C@@H](CO)C(=O)N[C@H](C(=O)N[C@H](C(=O)N[C@@H](Cc1c[nH]c2ccccc12)C(=O)N[C@@H](Cc1c[nH]c2ccccc12)C(=O)O)[C@@H](C)O)C(C)C (stereo partly drawn) [KAlip-8, VQSD K(lip)ASVTWW] (H-VQSDK(Lipoyl(6ξ))ASVTWW-OH)

Delipoylation product (HPLC yield of delipoylated product) [1]: 100%
Molecule: EALPKK(lip) TGGPWW [KAlip-9]

Delipoylation product (HPLC yield of delipoylated product) [1]: 65%
Molecule: EIETDK(lip) TSVQWW [KAlip-7]

Delipoylation product (HPLC yield of delipoylated product) [1]: 100%
Molecule: SGASEK(lip)DIVHSGWW [KAlip-4]

Continued, molecule first:

Molecule: CSCC[C@H](NC(=O)[C@H](C)NC(=O)[C@H](CCC(=O)O)NC(=O)[C@@H](N)C(C)C)C(=O)N[C@@H](CCCCNC(=O)CCCCC1CCSS1)C(=O)N[C@@H](CC(C)C)C(=O)N[C@@H](CCSC)C(=O)N[C@@H](CC(N)=O)C(=O)N[C@@H](CCC(=O)O)C(=O)N[C@@H](Cc1c[nH]c2ccccc12)C(=O)N[C@@H](Cc1c[nH]c2ccccc12)C(=O)O (stereo partly drawn) [KAlip-11, VEAMK(lip)LMNE WW] (H-VEAMK(Lipoyl(6ξ))LMNEWW-OH)
Delipoylation product (HPLC yield of delipoylated product) [1]: 94%

Molecule: EIETDK(lip)AVVTWW [KAlip-6]
Delipoylation product (HPLC yield of delipoylated product) [1]: 100%

Molecule: SDPIIK(lip)GSGTWW [KAlip-3]
Delipoylation product (HPLC yield of delipoylated product) [1]: 98%

Molecule: VKSK(lip)ATNL WW [KAlip-2]
Delipoylation product (HPLC yield of delipoylated product) [1]: 97%

Molecule: VQSDKlipASVT [lipoylated peptide competitor]
Inhibition of KPlip labelling of Sirt2 [2]: can be inhibited

B1: Sirt2 (Homo sapiens) (protein)
chain: T1 sequence (Q8IXJ6 1-389)
notes: made in house
Km [3]: 18.9 µM
Km [4]: 13.5 µM
Km [5]: 9.7 ± 0.2 µM
Km [6]: 26.2 ± 3.3 µM
